Patent US9637491B2, “Pyrazolo[4,3-D]pyrimidines as kinase inhibitors” (Origenis GmbH, priority 2012, dated 2017)

Molecular target: T1, SYK kinase (Homo sapiens, UniProt P43405)
T1 construct: purchased Invitrogen, Carlsbad
Test: SYK assay (OMNIA Kinase Assay, Invitrogen)
Assay type: biochemical
Settings: SYK Activities; 1 mM ATP, 10 μM Omnia Peptide Substrate Tyr 7, 30° C.
Method in brief: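 Continuous-read fluorescence kinase assay: SOX-labelled Tyr 7 peptide (10 μM) with 1 mM ATP and 0.2 mM DTT, 30° C, reaction started by adding SYK. Fluorescence (ex 360/em 485 nm) read every 30 s for 30 min. IC50 from sigmoidal fit of reaction velocity versus inhibitor concentration.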

| Structure (SMILES) | IC50 [nM] |
| --- | --- |
| COCCn1cc(Nc2nc(-c3ccc4cn[nH]c4c3)nc3cn[nH]c23)cn1 [Example 131, 5-(1H-indazol-6-yl)-N-(1-(2-methoxyethyl)-1H-pyrazol-4-yl)-1H-pyrazolo[4,3-d]pyrimidin-7-amine] | 10 to 100 |
| CN1CCC(n2cc(Nc3nc(-c4ccc5cn[nH]c5c4)nc4cn[nH]c34)cn2)CC1 [Example 132, 5-(1H-indazol-6-yl)-N-(1-(1-methylpiperidin-4-yl)-1H-pyrazol-4-yl)-1H-pyrazolo[4,3-d]pyrimidin-7-amine] | 10 to 100 |
| CC(=O)N1CCC(n2cc(Nc3nc(-c4ccc5cn[nH]c5c4)nc4cn[nH]c34)cn2)CC1 [Example 133, 1-(4-(4-((5-(1H-indazol-6-yl)-1H-pyrazolo[4,3-d]pyrimidin-7-yl)amino)-1H-pyrazol-1-yl)piperidin-1-yl)ethan-1-one] | 10 to 100 |
| c1nn(C2CCOCC2)cc1Nc1nc(-c2ccc3cn[nH]c3c2)nc2cn[nH]c12 [Example 134, 5-(1H-indazol-6-yl)-N-(1-(tetrahydro-2H-pyran-4-yl)-1H-pyrazol-4-yl)-1H-pyrazolo[4,3-d]pyrimidin-7-amine] | < 10 |
| c1cc(-c2nc(Nc3cnn(C4CCOCC4)c3)c3[nH]ncc3n2)co1 [Example 146, 5-(furan-3-yl)-N-(1-(tetrahydro-2H-pyran-4-yl)-1H-pyrazol-4-yl)-1H-pyrazolo[4,3-d]pyrimidin-7-amine] | < 10 |
| c1cncc(-c2nc(Nc3ccc(N4CCOCC4)cc3)c3n[nH]cc3n2)c1 [Example 162, N-(4-morpholinophenyl)-5-(pyridin-3-yl)-2H-pyrazolo[4,3-d]pyrimidin-7-amine] | 100 to 1000 |
| Cn1ccc(-c2nc(Nc3ccc(N4CCOCC4)cc3)c3[nH]ncc3n2)n1 [Example 175, 5-(1-methyl-1H-pyrazol-3-yl)-N-(4-morpholinophenyl)-1H-pyrazolo[4,3-d]pyrimidin-7-amine] | 100 to 1000 |
| CC(C)(C#N)n1cc(Nc2nc(C3CC3)nc3cn[nH]c23)cn1 [Example 177, 2-(4-((5-cyclopropyl-1H-pyrazolo[4,3-d]pyrimidin-7-yl)amino)-1H-pyrazol-1-yl)-2-methylpropanenitrile] | 100 to 1000 |
| c1nn(C2CCOCC2)cc1Nc1nc(-c2ccc3[nH]ncc3c2)nc2cn[nH]c12 [Example 178, 5-(1H-indazol-5-yl)-N-(1-(tetrahydro-2H-pyran-4-yl)-1H-pyrazol-4-yl)-1H-pyrazolo[4,3-d]pyrimidin-7-amine] | 10 to 100 |
| c1cc(N2CCOCC2)ccc1Nc1nc(-c2ccc3[nH]ncc3c2)nc2cn[nH]c12 [Example 179, 5-(1H-indazol-5-yl)-N-(4-morpholinophenyl)-1H-pyrazolo[4,3-d]pyrimidin-7-amine] | 10 to 100 |
| CC(=O)N1CCN(c2ccc(Nc3nc(C(C)C)nc4cn[nH]c34)cc2)CC1 [Example 180, 1-(4-(4-((5-isopropyl-1H-pyrazolo[4,3-d]pyrimidin-7-yl)amino)phenyl)piperazin-1-yl)ethan-1-one] | 100 to 1000 |
| CC(C)c1nc(Nc2ccc(N3CCOCC3)cc2)c2[nH]ncc2n1 [Example 181, 5-isopropyl-N-(4-morpholinophenyl)-1H-pyrazolo[4,3-d]pyrimidin-7-amine] | 100 to 1000 |
| CC(C)c1nc(Nc2cnn(C3CCOCC3)c2)c2[nH]ncc2n1 [Example 182, 5-isopropyl-N-(1-(tetrahydro-2H-pyran-4-yl)-1H-pyrazol-4-yl)-1H-pyrazolo[4,3-d]pyrimidin-7-amine] | 100 to 1000 |
| CC(C)c1nc(Nc2cnn(C3CCN(C)CC3)c2)c2[nH]ncc2n1 [Example 184, 5-isopropyl-N-(1-(1-methylpiperidin-4-yl)-1H-pyrazol-4-yl)-1H-pyrazolo[4,3-d]pyrimidin-7-amine] | 100 to 1000 |
| COCCn1cc(Nc2nc(C(C)C)nc3cn[nH]c23)cn1 [Example 185, 5-isopropyl-N-(1-(2-methoxyethyl)-1H-pyrazol-4-yl)-1H-pyrazolo[4,3-d]pyrimidin-7-amine] | 100 to 1000 |
| CC(=O)N1CCC(n2cc(Nc3nc(C(C)C)nc4cn[nH]c34)cn2)CC1 [Example 186, 1-(4-(4-((5-isopropyl-1H-pyrazolo[4,3-d]pyrimidin-7-yl)amino)-1H-pyrazol-1-yl)piperidin-1-yl)ethan-1-one] | 100 to 1000 |
| CC(=O)N1CCN(c2ccc(Nc3nc(-c4cnn(C)c4)nc4cn[nH]c34)cc2)CC1 [Example 187, 1-(4-(4-((5-(1-methyl-1H-pyrazol-4-yl)-1H-pyrazolo[4,3-d]pyrimidin-7-yl)amino)phenyl)piperazin-1-yl)ethan-1-one] | 10 to 100 |
| COCCn1cc(Nc2nc(-c3cnn(C)c3)nc3cn[nH]c23)cn1 [Example 188, N-(1-(2-methoxyethyl)-1H-pyrazol-4-yl)-5-(1-methyl-1H-pyrazol-4-yl)-1H-pyrazolo[4,3-d]pyrimidin-7-amine] | 100 to 1000 |
| CC(=O)N1CCC(n2cc(Nc3nc(-c4cnn(C)c4)nc4cn[nH]c34)cn2)CC1 [Example 189, 1-(4-(4-((5-(1-methyl-1H-pyrazol-4-yl)-1H-pyrazolo[4,3-d]pyrimidin-7-yl)amino)-1H-pyrazol-1-yl)piperidin-1-yl)ethan-1-one] | < 10 |
| CN1CCC(n2cc(Nc3nc(-c4cnn(C)c4)nc4cn[nH]c34)cn2)CC1 [Example 190, 5-(1-methyl-1H-pyrazol-4-yl)-N-(1-(1-methylpiperidin-4-yl)-1H-pyrazol-4-yl)-1H-pyrazolo[4,3-d]pyrimidin-7-amine] | 10 to 100 |
| COCCn1cc(Nc2nc(C3CCC3)nc3cn[nH]c23)cn1 [Example 191, 5-cyclobutyl-N-(1-(2-methoxyethyl)-1H-pyrazol-4-yl)-1H-pyrazolo[4,3-d]pyrimidin-7-amine] | 10 to 100 |
| CC(=O)N1CCN(c2ccc(Nc3nc(C4CCC4)nc4cn[nH]c34)cc2)CC1 [Example 192, 1-(4-(4-((5-cyclobutyl-1H-pyrazolo[4,3-d]pyrimidin-7-yl)amino)phenyl)piperazin-1-yl)ethan-1-one] | < 10 |
| O=C(c1ccc(Nc2nc(C3CCC3)nc3cn[nH]c23)cc1F)N1CCOCC1 [Example 193, (4-((5-cyclobutyl-1H-pyrazolo[4,3-d]pyrimidin-7-yl)amino)-2-fluorophenyl)(morpholino)methanone] | 100 to 1000 |
| COCCn1cc(Nc2nc(C3CC3)nc3cn[nH]c23)cn1 [Example 194, 5-cyclopropyl-N-(1-(2-methoxyethyl)-1H-pyrazol-4-yl)-1H-pyrazolo[4,3-d]pyrimidin-7-amine] | 100 to 1000 |
| COCCn1cc(Nc2nc(-c3ccco3)nc3cn[nH]c23)cn1 [Example 195, 5-(furan-2-yl)-N-(1-(2-methoxyethyl)-1H-pyrazol-4-yl)-1H-pyrazolo[4,3-d]pyrimidin-7-amine] | 10 to 100 |
| CC(=O)N1CCC(n2cc(Nc3nc(-c4ccco4)nc4cn[nH]c34)cn2)CC1 [Example 196, 1-(4-(4-((5-(furan-2-yl)-1H-pyrazolo[4,3-d]pyrimidin-7-yl)amino)-1H-pyrazol-1-yl)piperidin-1-yl)ethan-1-one] | < 10 |
| O=C(c1ccc(Nc2nc(-c3ccco3)nc3cn[nH]c23)cc1F)N1CCOCC1 [Example 197, (2-fluoro-4-((5-(furan-2-yl)-1H-pyrazolo[4,3-d]pyrimidin-7-yl)amino)phenyl)(morpholino)methanone] | 100 to 1000 |
